# Measurements published in ChEMBL document CHEMBL1130983, “New acetylene based histamine H3 receptor antagonists derived from the marine natural product verongamine” (Bioorg Med Chem Lett, 1998).
# Columns and labels:
# Histamine H3 receptor [1] = target: T1, Histamine H3 receptor (Rattus norvegicus, UniProt Q9QYN8); experiment: Inhibition of [3H]- N-alpha-methylhistamine from histamine H3 receptor
# Cavia porcellus = species on record: Cavia porcellus; experiment: In vitro activity on K+ induced R-alpha methyl histamine mediated inhibition of norepinephrine release from guinea pig cardiac synaptosomes; assay type: functional
# Rattus norvegicus = species on record: Rattus norvegicus; experiment: Effective dose was evaluated for blood brain penetration using ex vivo binding techniques; assay type: functional
# Histamine H3 receptor [2] = target: T1, Histamine H3 receptor; experiment: Antagonistic activity was evaluated against histamine H3 receptor using [3H]- N-alpha-methylhistamine as radioligand in experiment 2; assay type: functional
# T1 sequence (Q9QYN8 whole entry): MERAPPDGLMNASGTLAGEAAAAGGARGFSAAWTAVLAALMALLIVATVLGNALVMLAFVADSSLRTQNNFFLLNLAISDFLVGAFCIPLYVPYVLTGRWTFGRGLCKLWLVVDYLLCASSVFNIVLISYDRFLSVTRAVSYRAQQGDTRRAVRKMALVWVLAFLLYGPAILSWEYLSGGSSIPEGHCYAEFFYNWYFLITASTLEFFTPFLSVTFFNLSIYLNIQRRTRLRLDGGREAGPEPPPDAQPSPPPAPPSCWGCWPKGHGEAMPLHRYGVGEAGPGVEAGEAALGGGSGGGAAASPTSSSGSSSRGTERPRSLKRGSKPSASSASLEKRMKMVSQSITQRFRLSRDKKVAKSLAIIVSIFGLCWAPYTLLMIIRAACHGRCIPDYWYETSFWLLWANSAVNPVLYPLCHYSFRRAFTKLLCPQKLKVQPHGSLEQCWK
SMILES,Ki (Histamine H3 receptor [1]) [nM],Release (Cavia porcellus) [%],ED50 (Rattus norvegicus) [mg/kg],Ki (Histamine H3 receptor [2]) [nM]
Cn1cncc1CCN,1,106,,
C(#CCCC1CCCC1)CCc1c[nH]cn1,,111,0.48,
S=C(NC1CCCCC1)N1CCC(c2cnc[nH]2)CC1 [THIOPERAMIDE],,,,1.54
COc1ccc(C/C(=N\O)C(=O)NCCc2c[nH]cn2)cc1Br [VERONGAMINE],0.5,,,
C(#CCCC1CCCCC1)CCc1c[nH]cn1,,122,0.43,
